Experimental data reported in patent publication US20070292888A1, “Methods for Measuring Enzyme Activities in Cells, Blood, Tumors and Tissues” (GEN-PATH PHARMACEUTICALS, INC., priority 2004, published 2007).

Biological target: T1, glucose-6-phosphate dehydrogenase (G6PDH) (Mus musculus, UniProt Q00612)
T1 construct: from tissue; host or cells: mouse tumor, blood, brain, heart, kidney, liver, lung, spleen (crude lysates)
Test: Glucose-6-phosphate dehydrogenase activity in tissues of treated mice (fluorescence NADPH assay)
Format: in vivo
Settings: 11 days i.p. twice per day, various organs
Protocol: Blood samples from mice were taken (40 μl whole blood) serially or from mice sacrificed at the end of the experiment. Tissues, such as tumors (e.g. from implantation, xenograft, or arising spontaneously), brain, heart, kidney, liver, lung and spleen were taken and flash frozen in liquid nitrogen or on dry ice and stored in −80° C. until time of assay. Four volumes of cold lysis buffer (20 mM HEPES, pH 7.5, 1 mM EDTA, 0.2 g/l Triton X-100® and 0.2 g/L sodium deoxycholate, supplemented with 1 mM DTT and 1 mM PMSF just before use) were added to the blood, which was dissolved by vortexing. For blood that was frozen before coagulation, a clear lysate was obtained. […]
Each reaction was monitored for the appearance of NADH (for transketolase, alpha-ketoglutarate dehydrogenase, pyruvate dehydrogenase) or NADPH (for glucose-6-phosphate dehydrogenase) at room temperature in a fluorescent plate reader with excitation at 340 nm and emission at 470 nm in kinetic mode. The velocity was determined by the slope of the initial linear range of increasing fluorescence, expressed in fluorescent units (FU)/min. The protein concentration in the lysate was determined using Bradford assays (BioRad) with BSA as a standard. […]
We measured enzyme activity in an expanded panel of tissues from mice treated with N3PT or OxyT for 11 days i.p., twice per day. […]

T1 sequence (Q00612 whole entry): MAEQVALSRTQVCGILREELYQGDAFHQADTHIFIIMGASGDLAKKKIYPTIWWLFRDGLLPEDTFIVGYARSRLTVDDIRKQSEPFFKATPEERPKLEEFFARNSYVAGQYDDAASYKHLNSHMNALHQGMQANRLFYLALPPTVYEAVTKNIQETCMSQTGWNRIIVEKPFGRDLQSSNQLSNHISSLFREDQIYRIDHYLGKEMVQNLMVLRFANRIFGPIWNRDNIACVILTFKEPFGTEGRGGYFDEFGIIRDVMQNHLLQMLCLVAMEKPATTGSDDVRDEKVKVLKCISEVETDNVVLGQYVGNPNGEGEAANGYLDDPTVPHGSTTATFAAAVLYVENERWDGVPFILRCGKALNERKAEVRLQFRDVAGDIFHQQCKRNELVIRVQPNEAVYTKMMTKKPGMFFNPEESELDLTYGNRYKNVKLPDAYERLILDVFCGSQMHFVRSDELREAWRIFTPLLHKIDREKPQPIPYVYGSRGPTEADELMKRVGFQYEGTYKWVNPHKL

Structure (SMILES): Cc1ccc(C[n+]2csc(CCO)c2C)c(N)n1 [N3PT, 3-[(2-amino-6-methyl-3-pyridinyl)methyl]-5-(2-hydroxyethyl)-4-methyl thiazolium]
- G6PDH enzymatic activity following treatment: no significant decrease
